Test results from the supplement of paper PMC13380429.

Assays:
[1] = test system: A549-ACE2 infected with SARS-CoV-2; assay: SARS-CoV-2 infection rate relative to DMSO; higher = more infection; settings: 24 h
U2OS [2] = assay: cell viability relative to DMSO; higher = less toxic; settings: 72 h
Calu-3 [3] = assay: as above; settings: 72 h
Vero E6 [4] = assay: as above; settings: 72 h
Caco-2 [5] = assay: as above; settings: 72 h
HepG2 [6] = assay: as above; settings: 72 h
[7] = test system: A549-ACE2 infected with SARS-CoV-2; assay: morphology score (similarity to uninfected cells); higher = more like uninfected cells; settings: 24 h
A549-ACE2 [8] = assay: drug-induced phospholipidosis relative to tamoxifen; higher = more phospholipidosis
U2OS [9] = assay: relative viability EC50 (midpoint between 100% and the lowest measured viability); higher = less toxic; settings: 72 h
Calu-3 [10] = assay: as above; settings: 72 h
Vero E6 [11] = assay: as above; settings: 72 h
Caco-2 [12] = assay: as above; settings: 72 h
[13] = test system: A549-ACE2 infected with SARS-CoV-2; assay: cell count relative to DMSO; higher = less toxic; settings: 24 h
A549-ACE2 [14] = assay: phospholipidosis EC50; higher = less potent phospholipidosis inducer
U2OS [15] = assay: drug sensitivity score (DSS) for viability; higher = more toxic; extreme values may be limits of the assay; settings: 72 h
Calu-3 [16] = assay: as above; settings: 72 h
Vero E6 [17] = assay: as above; settings: 72 h
Caco-2 [18] = assay: as above; settings: 72 h
HepG2 [19] = assay: as above; settings: 72 h
HepG2 [20] = assay: relative viability EC50 (midpoint between 100% and the lowest measured viability); higher = less toxic; settings: 72 h

C[C@@H]1CN(CC(=O)Nc2ccc3c(c2)Cc2cccc(-c4cc(=O)cc(N5CCOCC5)o4)c2S3)C[C@H](C)O1
Settings	SARS-CoV-2 infection rate [%]	cell count [%]	cell viability [%]	morphology score	phospholipidosis EC50 [µM]
A549-ACE2 [14], 72 h	–	–	–	–	20
Caco-2 [5], 1 nM	–	–	97.2	–	–
Caco-2 [5], 10 nM	–	–	103	–	–
Caco-2 [5], 100 nM	–	–	101	–	–
Caco-2 [5], 1000 nM	–	–	103	–	–
Caco-2 [5], 10000 nM	–	–	47.3	–	–
Calu-3 [3], 1 nM	–	–	99.4	–	–
Calu-3 [3], 10 nM	–	–	104	–	–
Calu-3 [3], 100 nM	–	–	99.4	–	–
Calu-3 [3], 1000 nM	–	–	105	–	–
Calu-3 [3], 10000 nM	–	–	99.3	–	–
HepG2 [6], 1 nM	–	–	105	–	–
HepG2 [6], 10 nM	–	–	101	–	–
HepG2 [6], 100 nM	–	–	97.8	–	–
HepG2 [6], 1000 nM	–	–	96	–	–
HepG2 [6], 10000 nM	–	–	54.3	–	–
U2OS [2], 1 nM	–	–	102	–	–
U2OS [2], 10 nM	–	–	104	–	–
U2OS [2], 100 nM	–	–	95.7	–	–
U2OS [2], 1000 nM	–	–	98.7	–	–
U2OS [2], 10000 nM	–	–	89.6	–	–
Vero E6 [4], 1 nM	–	–	103	–	–
Vero E6 [4], 10 nM	–	–	99.2	–	–
Vero E6 [4], 100 nM	–	–	103	–	–
Vero E6 [4], 1000 nM	–	–	104	–	–
Vero E6 [4], 10000 nM	–	–	80.9	–	–
[1], 0.3 µM	108	–	–	–	–
[1], 3 µM	98	–	–	–	–
[1], 10 µM	62	–	–	–	–
[1], 30 µM	68	–	–	–	–
[7], 0.3 µM	–	–	–	0.15	–
[7], 3 µM	–	–	–	0.09	–
[7], 10 µM	–	–	–	0.57	–
[7], 30 µM	–	–	–	0.45	–
[13], 0.3 µM	–	115	–	–	–
[13], 3 µM	–	103	–	–	–
[13], 10 µM	–	113	–	–	–
[13], 30 µM	–	104	–	–	–

drug-induced phospholipidosis [%], A549-ACE2 [8]
Settings	0.3 µM	0.833333 µM	3.33333 µM	6.66667 µM	10 µM	30 µM
24 h	-1.06	-2.12	-2.36	1.18	7.55	66.8
48 h	-1.36	-2.9	-1.74	0	6.05	52.4
72 h	-1.2	-4.15	-2.75	0.476	6.88	56.1

Settings	drug sensitivity score	relative viability EC50 [µM]
Caco-2 [12]	–	3.48
Caco-2 [18]	2.5	–
Calu-3 [10]	–	> 10
Calu-3 [16]	0	–
HepG2 [19]	3	–
U2OS [9]	–	> 10
U2OS [15]	0	–
Vero E6 [11]	–	> 10
Vero E6 [17]	0.4	–

COc1cccc([C@@H](C)NCCCc2ccccc2Cl)c1 [tecalcet]
Settings	SARS-CoV-2 infection rate [%]	cell count [%]	cell viability [%]	morphology score	phospholipidosis EC50 [µM]
A549-ACE2 [14], 24 h	–	–	–	–	6.31
A549-ACE2 [14], 48 h	–	–	–	–	8.26
A549-ACE2 [14], 72 h	–	–	–	–	11.4
Caco-2 [5], 1 nM	–	–	101	–	–
Caco-2 [5], 10 nM	–	–	94.8	–	–
Caco-2 [5], 100 nM	–	–	94.5	–	–
Caco-2 [5], 1000 nM	–	–	92.4	–	–
Caco-2 [5], 10000 nM	–	–	86.3	–	–
HepG2 [6], 1 nM	–	–	92.9	–	–
HepG2 [6], 10 nM	–	–	101	–	–
HepG2 [6], 100 nM	–	–	101	–	–
HepG2 [6], 1000 nM	–	–	108	–	–
HepG2 [6], 10000 nM	–	–	83.1	–	–
U2OS [2], 1 nM	–	–	101	–	–
U2OS [2], 10 nM	–	–	97.6	–	–
U2OS [2], 100 nM	–	–	101	–	–
U2OS [2], 1000 nM	–	–	102	–	–
U2OS [2], 10000 nM	–	–	90.2	–	–
Vero E6 [4], 1 nM	–	–	108	–	–
Vero E6 [4], 10 nM	–	–	103	–	–
Vero E6 [4], 100 nM	–	–	101	–	–
Vero E6 [4], 1000 nM	–	–	101	–	–
Vero E6 [4], 10000 nM	–	–	96.2	–	–
[1], 0.3 µM	111	–	–	–	–
[1], 3 µM	84	–	–	–	–
[1], 10 µM	52	–	–	–	–
[1], 30 µM	10	–	–	–	–
[7], 0.3 µM	–	–	–	-0.35	–
[7], 3 µM	–	–	–	0.47	–
[7], 10 µM	–	–	–	0.9	–
[7], 30 µM	–	–	–	0.78	–
[13], 0.3 µM	–	97	–	–	–
[13], 3 µM	–	105	–	–	–
[13], 10 µM	–	116	–	–	–
[13], 30 µM	–	112	–	–	–

drug-induced phospholipidosis [%], A549-ACE2 [8]
Settings	0.3 µM	0.833333 µM	3.33333 µM	6.66667 µM	10 µM	30 µM
24 h	3.6	1.52	14.2	49.8	74.2	90
48 h	5	4.11	18.9	41.5	67.1	98.2
72 h	7.69	2.06	15.2	34.4	61.6	117

Settings	drug sensitivity score	relative viability EC50 [µM]
Caco-2 [12]	–	> 10
Caco-2 [18]	0.2	–
HepG2 [19]	0.2	–
HepG2 [20]	–	> 10
U2OS [9]	–	> 10
U2OS [15]	0	–
Vero E6 [11]	–	> 10
Vero E6 [17]	0	–

CC(C)(C)c1ccc(-c2nc3ccccc3[nH]2)cc1 [ZLN005]
Settings	SARS-CoV-2 infection rate, [1] [%]	cell count, [13] [%]	cell viability, Caco-2 [5] [%]	cell viability, Calu-3 [3] [%]	cell viability, HepG2 [6] [%]	cell viability, U2OS [2] [%]	cell viability, Vero E6 [4] [%]	morphology score, [7]
1 nM	–	–	91.8	87.7	94.6	101	92.8	–
10 nM	–	–	99.8	94.1	98.2	94.2	98.6	–
100 nM	–	–	97.1	105	96.2	97.7	94.1	–
0.3 µM	99	98	–	–	–	–	–	0.14
1000 nM	–	–	84	88.1	96.6	90.7	92.7	–
3 µM	87	113	–	–	–	–	–	0.37
10 µM	57	115	–	–	–	–	–	0.7
10000 nM	–	–	49.4	49.4	77.4	78.4	81.6	–
30 µM	32	110	–	–	–	–	–	0.77

drug-induced phospholipidosis [%], A549-ACE2 [8]
Settings	0.3 µM	0.833333 µM	3.33333 µM	6.66667 µM	10 µM	30 µM
24 h	3.54	-4.68	-5.18	-7.34	-8.03	-10.2
48 h	4.21	-3.33	-5.71	-7.4	-10.6	-12.3
72 h	2.86	-4.87	-1.84	-5.31	-5.63	-6.24

Settings	drug sensitivity score	relative viability EC50 [µM]
Caco-2 [12]	–	1.4
Caco-2 [18]	4.9	–
Calu-3 [10]	–	1.6
Calu-3 [16]	4.6	–
HepG2 [19]	1.3	–
HepG2 [20]	–	> 10
U2OS [9]	–	> 10
U2OS [15]	1.3	–
Vero E6 [11]	–	> 10
Vero E6 [17]	0.6	–
